This passage reports TGI results from PubChem BioAssay (NCI).

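96-well plates; 48 h exposure; 5 concentrations. Endpoints by linear interpolation between flanking doses. Not reached: highest tested concentration assigned. TGI denotes the concentration required for complete inhibition of growth.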 Bounds are passed on as bounds.

Some test systems named below: SNB-19 CNS; SF-268 CNS; T-47D breast; A549 NSCLC; SNB-75 CNS; LOX IMVI melanoma; CCRF-CEM leukemia; 786-0 renal; KM12 colon; HL-60(TB) leukemia; HT29 colon; NCI-H522 lung; OVCAR-8 ovarian; HOP-62 NSCLC; HCT-15 colon.
Holding throughout (assay): NCI-60 cell line screen, 48 h

`Cn1c(=O)c2ccccc2[n+]2c(-c3cccc([N+](=O)[O-])c3)csc12`: the TGI is greater than 100 µM in the test on SNB-19 CNS; greater than 100 µM with SF-268 CNS; greater than 100 µM with T-47D breast; greater than 100 µM in the test on A549 NSCLC; 82.2 µM in the test on SNB-75 CNS; greater than 100 µM with LOX IMVI melanoma. For the same compound, the TGI in the test with CCRF-CEM leukemia was greater than 100 µM; with 786-0 renal it was greater than 100 µM; in the test with KM12 colon, greater than 100 µM; with HL-60(TB) leukemia, 62.8 µM; in the test on HT29 colon it was greater than 100 µM; in the test on NCI-H522 lung, greater than 100 µM. For the same compound, the TGI with OVCAR-8 ovarian and with HOP-62 NSCLC was greater than 100 µM each time.
Regarding `Cc1c(C(=O)c2ccccc2)[n+](=O)c2cc(Cl)c(Cl)cc2n1[O-]`, the TGI with SNB-19 CNS came out at 37.4 µM; in the test with SF-268 CNS, 29.5 µM; in the test on T-47D breast, 14 µM; with A549 NSCLC it was 27.5 µM; in the test with SNB-75 CNS it was 15.8 µM; in the test with LOX IMVI melanoma, 15.8 µM. The TGI was 71.5 µM with CCRF-CEM leukemia; 4.56 µM in the test with HCT-15 colon; 29.3 µM with 786-0 renal; 23 µM with KM12 colon; 4.82 µM in the test on HL-60(TB) leukemia; 28.7 µM with HT29 colon. Moreover, the TGI in the test on OVCAR-8 ovarian came to 23.2 µM; with HOP-62 NSCLC it was 29.7 µM.
Consider `CC(=O)Nc1cc(Cl)cc(Cl)c1O`, for which the TGI in the test on SNB-19 CNS, in the test on SF-268 CNS, in the test with T-47D breast, in the test with A549 NSCLC, with SNB-75 CNS and in the test on CCRF-CEM leukemia was greater than 100 µM throughout. Also, the TGI in the test with HCT-15 colon, in the test with 786-0 renal, in the test with KM12 colon, in the test with HL-60(TB) leukemia, with HT29 colon and in the test on NCI-H522 lung was greater than 100 µM throughout. Besides, the TGI with OVCAR-8 ovarian and in the test on HOP-62 NSCLC was greater than 100 µM in each case.
On to `O=S1SC(=S)C2C=CC=NC21` (configuration not stated), for which the TGI is 87.9 µM in the test with SNB-19 CNS; 44.6 µM with SF-268 CNS; 58.9 µM in the test on T-47D breast; 60.5 µM in the test with A549 NSCLC; 34.9 µM in the test with SNB-75 CNS; 32.7 µM with LOX IMVI melanoma. The TGI was greater than 100 µM in the test with CCRF-CEM leukemia; 49.2 µM in the test on HCT-15 colon; 27.6 µM with 786-0 renal; greater than 100 µM with KM12 colon; greater than 100 µM with HL-60(TB) leukemia; 30.8 µM in the test with HT29 colon. Besides, the figures for the TGI with NCI-H522 lung and in the test on OVCAR-8 ovarian were 53 µM and 79 µM, respectively.
As for `CSc1c(C#N)c(=O)n(N)c2c1c(C)nn2-c1ccccc1`, the TGI in the test on SNB-19 CNS was greater than 100 µM; with SF-268 CNS, greater than 100 µM; with T-47D breast, 81 µM; with A549 NSCLC, 61.6 µM; in the test with SNB-75 CNS, 85.4 µM; in the test with LOX IMVI melanoma, 52.6 µM. In addition, the TGI in the test on CCRF-CEM leukemia was 76.3 µM; in the test with HCT-15 colon it was 85.4 µM; with 786-0 renal, greater than 100 µM; in the test on KM12 colon, greater than 100 µM; with HL-60(TB) leukemia it was 94.5 µM; in the test with HT29 colon it was 65.4 µM. In addition, the TGI in the test with NCI-H522 lung was greater than 100 µM; in the test with OVCAR-8 ovarian, 54 µM.
On to `C[N+](C)(C)CC(=O)N/N=C(\Cc1nc2ccc([N+](=O)[O-])cc2[nH]c1=O)C(=O)Nc1nc2ccc([N+](=O)[O-])cc2s1`, for which the TGI with SF-268 CNS, in the test on T-47D breast, with A549 NSCLC, with SNB-75 CNS, in the test on LOX IMVI melanoma and in the test on CCRF-CEM leukemia was greater than 100 µM in each case. Also, the TGI is greater than 100 µM with HCT-15 colon; greater than 100 µM with 786-0 renal; greater than 100 µM in the test with KM12 colon; greater than 100 µM in the test on HL-60(TB) leukemia; greater than 100 µM in the test on HT29 colon; 79.8 µM in the test with NCI-H522 lung. The TGI in the test with OVCAR-8 ovarian and in the test on HOP-62 NSCLC was greater than 100 µM throughout.
As to `C=C1N(S(=O)(=O)c2ccc(C)cc2)C(=O)OCC12CCCC2`, the TGI was greater than 100 µM with SNB-19 CNS; greater than 100 µM in the test with T-47D breast; greater than 100 µM in the test on A549 NSCLC; 62.6 µM in the test with SNB-75 CNS; greater than 100 µM in the test on LOX IMVI melanoma; greater than 100 µM in the test on CCRF-CEM leukemia. Also, the TGI in the test on HCT-15 colon, in the test with 786-0 renal, in the test with KM12 colon, with HL-60(TB) leukemia, in the test on HT29 colon and in the test on NCI-H522 lung was greater than 100 µM throughout. The same compound came in with a TGI with OVCAR-8 ovarian greater than 100 µM.
For `COC(=O)C1(C(=O)OC)N=C(C)OC1c1ccccc1O` (configuration not stated), the TGI with SNB-19 CNS, in the test on T-47D breast, in the test on A549 NSCLC, in the test with SNB-75 CNS, with LOX IMVI melanoma and in the test with CCRF-CEM leukemia was greater than 100 µM throughout. Moreover, the TGI in the test on HCT-15 colon, with 786-0 renal, in the test with KM12 colon, with HL-60(TB) leukemia, in the test on OVCAR-8 ovarian and in the test on HOP-62 NSCLC was greater than 100 µM in each case.
Regarding `CN(C)c1ccc(C=Nc2ccc(-c3nc4ccccc4s3)cc2)cc1`, the TGI in the test on SNB-19 CNS is greater than 100 µM; in the test on T-47D breast, 73.9 µM; in the test on A549 NSCLC, greater than 100 µM; with SNB-75 CNS, 80.9 µM; in the test with LOX IMVI melanoma, 94.8 µM; in the test on CCRF-CEM leukemia, 10.9 µM. Also, the TGI in the test on HCT-15 colon is greater than 100 µM; in the test on 786-0 renal, 42.8 µM; in the test on KM12 colon, greater than 100 µM; with HL-60(TB) leukemia, 0.525 µM; in the test with HT29 colon, greater than 100 µM; in the test on NCI-H522 lung it was 51.2 µM. Further, the results for the TGI with OVCAR-8 ovarian and in the test on HOP-62 NSCLC were greater than 100 µM and 82.8 µM, respectively.
In the case of `Cc1ccc(Sc2ccccc2C23OC(C)(C4C(=O)N(c5ccccc5)C(=O)C42)N(C)C3=O)cc1` (configuration not stated), the TGI in the test on SNB-19 CNS, with SF-268 CNS, in the test on T-47D breast, with A549 NSCLC, in the test on SNB-75 CNS and with LOX IMVI melanoma was greater than 100 µM in each case. For the same compound, the TGI in the test with CCRF-CEM leukemia, in the test on HCT-15 colon, with 786-0 renal, in the test with KM12 colon, with HL-60(TB) leukemia and with HT29 colon was greater than 100 µM throughout. Moreover, the TGI in the test with NCI-H522 lung and with OVCAR-8 ovarian was greater than 100 µM each time.
